In US7919470B2, “Glycopeptide composition with improved antibiotic activity” (Xellia Pharmaceuticals APS, priority 2003, dated 2011):
Where “and” joins values, the source holds several entries; their conditions need not be identical. Equal entries are not always repeated.

Assays:
[1] = test system: Staphylococcus aureus ATCC 6538; test: Microbiological potency by agar diffusion; assay type: cell-based; settings: for Potency IU/mg powder: agar diffusion, Example 1 spiking experiments; for Potential potency IU/mg (TA2 + TA3-1): potency of the powder related to its HPLC content of TA2 + TA3-1
Procedure: Accordingly, in one embodiment a Teicoplanin composition as described herein, has a higher antibiotic activity than a corresponding Teicoplanin composition that has a % (mg TA3)/(mg TA3+TA2) of 6.5%, where the antibiotic activity is measured by a microbiological agar diffusion assay using Staphylococcus aureus ATCC 6538 as test strain and the measured potential potency (IU per mg TA2+TA3/g composition) is used to calculate the antibiotic activity.
(§1) Potency of Teicoplanin TA2, TA3-1 alone or in combination was determined by agar diffusion assays. Furthermore, the antimicrobial effect of pure and spiked products was investigated through the determination of the minimum inhibitory concentration (MIC) by a modified “MIC” test in micro titer trays.
The potency test is carried out according to the assay described below. The assay method generally corresponds to USP 25 and Ph.Eur 4th ed., but differs from both with respect to test strain and from the USP with respect to agar holes (ponds) as preferred to cylinders. The test is carried out as a 2,2 design as described in section <111> of the USP.
Stock solutions of standards and samples were prepared to approximately 900 IU/ml. The Teicoplanin standard contained approximately 25.0 mg in 4.0 ml water and buffer ad 25.0 ml. The samples of Teicoplanin compositions contained approximately 25.0 mg in 4.0 ml water and buffer ad 25.0 ml. The amount of sample was adjusted according to the actual amount of standard weighed. Finally, the standard and sample were diluted with buffer to the following concentrations:
The standard or sample was applied to the plates in accordance with an 8×8 Latin square design. Immediately after application, place the plates in the incubator at 34.0° C.±2° C., for 16-18 hours.
The results are analyzed by reading the zone diameters carefully with a 10× magnification and a precision of 0.1 mm. Statistical evaluation: for calculation and validation, follow the guidelines set out in Ph. Eur. and USP, using a computer program for all calculations.
In the spiking experiments, the amount of the investigated sample (amount of powder weighed) was reduced and replaced by a corresponding amount of spiking material or stock solutions were mixed in defined ratios.
(§2) Potency of teicoplanin TA2, TA3-1 alone or in combinations was determined by agar diffusion assays as described in example 1. Modified MIC-values in microtitre trays were determined as described in example 1.

[2] = test system: S. aureus ATCC 6538; test: Modified MIC test in micro titer trays; assay type: cell-based, Staphylococcus aureus; settings: for MIC: 24 hours, 37° C.
Procedure: as §1
Pure TA3-1, (Teicoplanin Material B 96% TA2-X, 4% TA3-1) and mixtures thereof were used. The test strain used was S. aureus ATCC 6538 in final concentrations of 5×10^5/ml and 5×10^4/ml respectively. The test was carried out in micro titer trays as a modification of an ordinary MIC test. Instead of using two-fold dilutions, 0.40-1.20 μg/ml with 0.20 μl divisions and 1.0-4.0 μl/ml with 1.0 μl divisions was used. The trays were incubated at 37° C. The wells were examined after 24 hours and any visible growth was noted.
In order to strengthen the evidence some experiments were performed with a modified antimicrobial analysis of Teicoplanin, spiked with different amounts of TA3-1. It was carried out in liquid medium in contrast to the agar diffusion tests and determined the MIC values. The results are summarized in Table 4, (“MIC”-values of Teicoplanin and/or TA3-1 on S. aureus ATCC6538).
as §2

| MIC ([2]; 5 × 10^4/ml S. aureus) | MIC ([2]; 5 × 10^5/ml S. aureus) | MIC value of pure TA3-1 relative to Targocid alone ([2]; Example 2, FIG. 6, MIC in μg powder/ml solution) | Structure (SMILES) | Potency IU/mg powder [1] | Potential potency IU/mg (TA2 + TA3-1) [1] | Potency compared with Targocid ([1]; Example 2, agar diffusion) | Antimicrobial effect on S. aureus compared with Teicoplanin ([2]; Example 1, MIC determination) | Antimicrobial effect on S. aureus relative to teicoplanin TA2 ([2]; Example 2, MIC determination) |
| --- | --- | --- | --- | --- | --- | --- | --- | --- |
|  |  |  | CC(=O)N[C@H]1[C@H](O[C@@H]2c3ccc(c(Cl)c3)Oc3cc4cc(c3O[C@@H]3O[C@H](CO)[C@@H](O)[C@H](O)[C@H]3NC(=O)CCCCCCC(C)C)Oc3ccc(cc3Cl)C[C@H]3NC(=O)[C@H](N)c5ccc(O)c(c5)Oc5cc(O)cc(c5)[C@H](NC3=O)C(=O)N[C@H]4C(=O)N[C@H]3C(=O)N[C@@H]2C(=O)N[C@H](C(=O)O)c2cc(O)cc(O[C@H]4O[C@H](CO)[C@@H](O)[C@H](O)[C@@H]4O)c2-c2cc3ccc2O)O[C@H](CO)[C@@H](O)[C@@H]1O [TA2-2, Teicoplanin A2-2] | 807 IU/mg powder and 776 IU/mg powder | 1017 IU/mg (TA2 + TA3-1) and 994 IU/mg (TA2 + TA3-1) |  |  |  |
| 2 to 3 µg/mL | 2 to 3 µg/mL | 4-5 times higher | CC(=O)N[C@H]1[C@H](O[C@@H]2c3ccc(c(Cl)c3)Oc3cc4cc(c3O)Oc3ccc(cc3Cl)C[C@H]3NC(=O)[C@H](N)c5ccc(O)c(c5)Oc5cc(O)cc(c5)[C@H](NC3=O)C(=O)N[C@H]4C(=O)N[C@H]3C(=O)N[C@@H]2C(=O)N[C@H](C(=O)O)c2cc(O)cc(O[C@H]4O[C@H](CO)[C@@H](O)[C@H](O)[C@@H]4O)c2-c2cc3ccc2O)O[C@H](CO)[C@@H](O)[C@@H]1O [TA3-1, Teicoplanin A3-1] | 570 IU/mg powder | 687 IU/mg (TA2 + TA3-1) | much lower potency | much lower | 4-5 |
